This passage reports EC50 results from US8609648B2, “Hepatitis C virus inhibitors” (Enanta Pharmaceuticals, Inc., priority 2009, dated 2013).

Each structure is given as a SMILES string. Bounds are passed on as bounds.

The test system of this assay is HCV 1b genotype replicon. The assay can be described thus: HCV replicon assay (qRT-PCR or luciferase). Type of assay: cell-based. The note with it: Hepatitis C virus, read-out: Genotype-1b replicon EC50 Range. An excerpt: HCV replicon cell lines (kindly provided by R. Bartenschlager) isolated from colonies as described by Lohman et. al. (Lohman et al. (1999) Science 285: 110-113, expressly incorporated by reference in its entirety) and used for all experiments. The HCV replicon has the nucleic acid sequence set forth in EMBL Accession No.: AJ242651, the coding sequence of which is from nucleotides 1801 to 8406.
The coding sequence of the published HCV replicon was synthesized and subsequently assembled in a modified plasmid pBR322 (Promega, Madison, Wis.) using standard molecular biology techniques. One replicon cell line (“SGR 11-7”) stably expresses HCV replicon RNA which consists of (i) the HCV 5′UTR fused to the first 12 amino acids of the capsid protein, (ii) the neomycin phosphotransferase gene (neo), (iii) the IRES from encephalomyocarditis virus (EMCV), and (iv) HCV NS2 to NS5B genes and the HCV 3′UTR. Another replicon cell line (“Huh-luc/neo-ET”) described by Vrolijk et. al. (Vrolijk et. al. (2003) Journal of Virological Methods 110:201-209, expressly incorporated by reference in its entirety) stably expresses HCV replicon RNA which consists of (i) the HCV 5′UTR fused to the first 12 amino acids of the capsid protein, (ii) the firefly luciferase reporter gene, (iii) the ubiquitin gene, (iv) the neomycin phosphotransferase gene (neo), (v) the IRES from encephalomyocarditis virus (EMCV), and (vi) HCV NS3 to NS5B genes that harbor cell culture adaptive mutations (E1202G, T1280I, K1846T) and the HCV 3′UTR.
These cell lines were maintained at 37° C., 5% CO2, 100% relative humidity in DMEM (Cat#11965-084, Invitrogen), with 10% fetal calf serum (“FCS”, Invitrogen), 1% non-essential amino acids (Invitrogen), 1% of Glutamax (Invitrogen), 1% of 100× penicillin/streptomycin (Cat#15140-122, Invitrogen) and Geneticin (Cat#10131-027, Invitrogen) at 0.75 mg/ml or 0.5 mg/ml for 11-7 and Huh-luc/neo-ET cells, respectively.
EC50 values of single agent compounds and combinations were determined by HCV RNA detection using quantitative RT-PCR, according to the manufacturer's instructions, with a TAQMAN® One-Step RT-PCR Master Mix Reagents Kit (Cat# AB 4309169, Applied Biosystems) on an ABI Model 7500 thermocycler. The TaqMan primers used for detecting and quantifying HCV RNA were obtained from Integrated DNA Technologies. HCV RNA was normalized to GAPDH RNA levels in drug-treated cells, which is detected and quantified using the Human GAPDH Endogenous Control Mix (Applied Biosystems, AB 4310884E). Total cellular RNA is purified from 96-well plates using the RNAqueous 96 kit (Ambion, Cat# AM1812). Chemical agent cytotoxicity is evaluated using an MTS assay according to the manufacturer's directions (Promega).
Since clinical drug resistance often develops in viral infections following single agent therapies, there is a need to assess the additive, antagonistic, or synergistic properties of combination therapies. We used the HCV replicon system to assess the potential use of the compound of the present invention or in combination therapies with Interferon alpha, cyclosporine analogs and inhibitors targeting other HCV proteins. The acute effects of a single or combinations of drugs are studied in the “Huh-luc/neo-ET” replicon with each chemical agent titrated in an X or Y direction in a 6 point two-fold dilution curve centered around the EC50 of each drug. Briefly, replicon cells are seeded at 7,000 cells per well in 90 ul DMEM (without phenol red, Invitrogen Cat.#31053-036) per well with 10% FCS, 1% non-essential amino acids, 1% of Glutamax and 1% of 100× penicillin/streptomycin and incubated overnight at 37° C., 5% CO2, 100% relative humidity. […]
Background: In antiviral work, replicon cells carry a viral genome segment that copies itself.
By EC50 is commonly meant the concentration giving half of the maximal effect. For the molecule `COC(=O)NC1CC[C@@H]2CC[C@@H](c3ncc(-c4ccc(-c5ccc(-c6cnc([C@@H]7CCCN7C(=O)[C@@H](NC(=O)OC)C(C)C)[nH]6)cc5)cc4)[nH]3)N2C1=O` (mixture of isomers) [Example 371], the EC50 is less than 1 nM.

Consider `COC(=O)N[C@H]1CC[C@@H]2SC[C@@H](c3ncc(-c4ccc(-c5ccc(-c6cnc([C@@H]7CCCN7C(=O)[C@@H](NC(=O)OC)C(C)C)[nH]6)cc5)cc4)[nH]3)N2C1=O` [Example 368], for which the EC50 was less than 1 nM.

On to `COC(=O)N[C@H]1CC[C@H]2CC[C@@H](c3ncc(-c4ccc(-c5ccc(-c6cnc([C@@H]7CCCN7C(=O)[C@@H](NC(=O)OC)C(C)C)[nH]6)cc5)cc4)[nH]3)N2C1=O` [Example 369], for which the EC50 was less than 1 nM.

For `COC(=O)N[C@H](C(=O)N1CCC[C@H]1c1ncc(-c2ccc(-c3ccc(-c4cnc([C@@H]5CC[C@@H]6CC[C@@H](NC(=O)OC)C(=O)N65)[nH]4)cc3)cc2)[nH]1)C(C)C` [Example 370], the EC50 is less than 1 nM.

For `COC(=O)N[C@H](C(=O)N1CCC[C@H]1c1ncc(-c2ccc(-c3ccc(-c4cnc([C@@H]5CS[C@@H]6CCCC(=O)N65)[nH]4)cc3)cc2)[nH]1)C(C)C` [Example 372], the EC50 was less than 1 nM.

As for `COC(=O)N[C@H](C(=O)N1CCC[C@H]1c1ncc(-c2ccc(-c3ccc(-c4cnc([C@@H]5CS[C@H]6CCCC(=O)N65)[nH]4)cc3)cc2)[nH]1)C(C)C` [Example 373], the EC50 was less than 1 nM.

In the case of `COC(=O)N[C@H](C(=O)N1CCC[C@H]1c1ncc(-c2ccc(-c3ccc(-c4cnc([C@@H]5CC[C@H]6CCCCC(=O)N65)[nH]4)cc3)cc2)[nH]1)C(C)C` [Example 374], the 50% effective concentration (EC50) is less than 1 nM.

With `COC(=O)N[C@H](C(=O)N1CCC[C@H]1c1ncc(-c2ccc(-c3ccc(-c4cnc([C@@H]5CC[C@@H]6CCCCC(=O)N65)[nH]4)cc3)cc2)[nH]1)C(C)C` [Example 375], the EC50 was less than 1 nM.

In the case of `COC(=O)N[C@H]1CCC[C@@H]2CC[C@@H](c3ncc(-c4ccc(-c5ccc(-c6cnc([C@@H]7CCCN7C(=O)[C@@H](NC(=O)OC)C(C)C)[nH]6)cc5)cc4)[nH]3)N2C1=O` [Example 376], the EC50 is less than 1 nM.
